In patent US20050079231A1, “Use of ingested sublimed sulfur for the restoration of lactose tolerance in humans with the medical disorder of lactose intolerance” (priority 1999, published 2005):

Assays:
[1] = system: patients with positive baseline lactose tolerance tests; test: Standard lactose tolerance test, baseline vs post-treatment; type: in vivo, humans
Experimental: (§1) From May 1998 through April 2002, 41 patients (22 with clinical and 19 with both clinical and laboratory evidence of severe lactose intolerance) were treated with sublimed sulfur (USP) and a restricted lactose diet for a mean of 3.6 (standard deviation [SD] 3.4) weeks, followed by a regular diet and sublimed sulfur for a mean of 5.8 (SD 5.0) weeks. Quantitative comparisons were made between baseline and post-treatment symptoms in all patients and standard lactose tolerance test results in a subset of 19 patients with positive baseline lactose tolerance tests.

[2] = system: patients with clinical lactose intolerance; test: Treatment of lactose-intolerant patients with sublimed sulfur: clinical symptoms, baseline vs post-treatment; type: in vivo, humans
Experimental: as §1

[3] = limited course of treatment, conclusion

SMILES: [S] [sublimed sulfur]
- patients who converted from intolerant to tolerant test results ([1]; 9 of 19 patients): 47%
- serum glucose level versus baseline in the lactose tolerance test ([1]; at 30 minutes, t=2.81, p=0.01): increased significantly above baseline
- serum glucose level versus baseline in the lactose tolerance test ([1]; at 60 minutes, t=2.58, p=0.02): increased significantly above baseline
- lactase activity [1, 3]: significant increase
- patients who remained asymptomatic after a second course of treatment ([2]; 13 of 17 patients whose symptoms redeveloped): 76%
- patients who became clinically asymptomatic after treatment ([2]; 17 of the subset of 19 patients with positive baseline lactose tolerance tests): 89%
- patients who remained symptom-free after one course of treatment ([2]; 20 of the remaining 39 patients): 51%
- patients who became asymptomatic during treatment ([2]; 39 of 41 patients, sublimed sulfur with restricted lactose diet, then regular diet): 95%
- overall relapse rate ([2]; after one course of treatment, confidence interval in brackets): 0.46 (confidence interval 0.32-0.61)
- median symptom-free period after discontinuation of sublimed sulfur ([2]; human, in vivo): 76 weeks
- lactose tolerance [2, 3]: restored lactose tolerance for prolonged periods
